Measurements reported in patent US11058665B2, “Methods for treating brain metastasis” (MEMORIAL SLOAN-KETTERING CANCER CENTER, priority 2014, dated 2021).
Counter-ions that a name gives are not always drawn.

Experiments:
[1] = in vivo; cited from earlier work
[2] = system: MDA231-BrM2 cells as orthotopic tumours; assay: Orthotopic tumour implantation in mammary fat pad, BLI; format: in vivo, mice; conditions: FIG. 15c, same treatment
Method: (§1) All experiments using animals were done in accordance to protocols approved by the MSKCC Institutional Animal Care and Use Committee. Athymic NCR nu/nu mice (NCI-Frederick), Cr:NIH bg-nu-xid mice (NCI-Frederick) and B6129SF1/J mice (Jackson Laboratory) were use at 5-6 weeks of age. For long-term brain metastasis assays we followed previously described procedures (Bos, Nguyen et al. 2010). In brief, 10^4 MDA231-BrM2 cells, 5×10^4 H2030-BrM3 cells, or 10^5 393N1 cells suspended in 100 μl of PBS were injected into the left cardiac ventricle. At the experimental endpoint, anesthetized mice (ketamine 100 mg/kg, xylazine 10 mg/kg) were injected retro-orbitally with D-luciferin (150 mg/kg), and brain colonization was quantified by ex vivo Bio-luminescent imaging (BLI). For short-term (7-day and 14-day) brain metastasis experiments, we injected 5×10^5 cells. TRITC dextran (70 KD) (Life Technologies) was intravenously injected to stain vascular structures. For inducible knockdown experiments, mice were given doxycycline hyclate (Sigma-Aldrich) in the drinking water (2 mg/mL) and the diet (Harlan) 14 days after injection of cancer cells. For lung colonization assays, 2×10^5 MDA231-BrM2 cells in 100 piL PBS were injected into the lateral tail vein. […] BLI was performed using an IVIS Spectrum Xenogen instrument (Caliper Life Sciences) and analysed using Living Image software, v. […]

[3] = system: MDA231-BrM2 cells (brain metastatic lesions); assay: Established brain metastasis treatment, starting 14 days after inoculation with MDA231-BrM2 cells, BLI; format: in vivo, mice; conditions: for progression of brain metastatic lesions (BLI): treatment from day 14, 35-day end point, Tonabersat 10 mg/kg, meclofenamate 20 mg/kg, carboplatin 50 mg/kg/5 days, FIG. 5h,i
Method: All experiments using animals were done in accordance to protocols approved by the MSKCC Institutional Animal Care and Use Committee. Athymic NCR nu/nu mice (NCI-Frederick), Cr:NIH bg-nu-xid mice (NCI-Frederick) and B6129SF1/J mice (Jackson Laboratory) were use at 5-6 weeks of age. For long-term brain metastasis assays we followed previously described procedures (Bos, Nguyen et al. 2010). In brief, 10^4 MDA231-BrM2 cells, 5×10^4 H2030-BrM3 cells, or 10^5 393N1 cells suspended in 100 μl of PBS were injected into the left cardiac ventricle. At the experimental endpoint, anesthetized mice (ketamine 100 mg/kg, xylazine 10 mg/kg) were injected retro-orbitally with D-luciferin (150 mg/kg), and brain colonization was quantified by ex vivo Bio-luminescent imaging (BLI). For short-term (7-day and 14-day) brain metastasis experiments, we injected 5×10^5 cells. TRITC dextran (70 KD) (Life Technologies) was intravenously injected to stain vascular structures. For inducible knockdown experiments, mice were given doxycycline hyclate (Sigma-Aldrich) in the drinking water (2 mg/mL) and the diet (Harlan) 14 days after injection of cancer cells. For lung colonization assays, 2×10^5 MDA231-BrM2 cells in 100 piL PBS were injected into the lateral tail vein. For orthotopic tumour implantation, 5×10^3 cells in 50 piL of 1:1 mix of PBS/growth factor reduced matrigel (BD Biosciences) were injected into the 4th right mammary fat pad of female mice. For drug treatment experiments, mice were intraperitoneally injected with carboplatin (Hospira) (50 mg/kg/5 days), Tonabersat (MedChem Express) (10 mg/kg/day), or meclofenamic acid sodium salt (Sigma-Aldrich) (20 mg/kg/day). Vehicle (10% DMSO in Polyethylene glycol 400) was used in control mice. BLI was performed using an IVIS Spectrum Xenogen instrument (Caliper Life Sciences) and analysed using Living Image software, v. 2.50. For brain metastasis assays, 8-10 mice were used in each group. For drug treatment experiments, mice were inoculated with cancer cells and randomly assigned to treatment groups. Gap junction modulators and chemotherapeutic agents were blindly administered in the MSKCC Antitumour Assessment Core.

[4] = system: unique stereoselective binding site in astrocytes; conditions: cited from earlier work
[5] = system: gap junction dye transfer from astrocytes to MDA231-BrM2 cells; assay: Dye transfer assay (calcein) from astrocytes to cancer cells, flow cytometry; format: cell-based, human; conditions: for dye transfer from astrocytes to cancer cells: MDA231-BrM2 cells, flow cytometry, FIG. 5a
Method: Dye Transfer and EdU Transfer Assays.
Monolayers of cancer cells or astrocytes were labeled with 2.5 gig/ml calcein Red-Orange AM dye (Life Technologies) at 37° C. for 30 min. Single cell suspensions were mixed at a ratio of 2:1 labeled:unlabeled cells for 6 h. Certain experiments used a mix of three cell populations, MDA231-BrM2 (GFP+), HBMEC (pre-labeled with Cell Proliferating Dye Fluor@670, eBioscience), and unlabeled astrocytes. Dye transfer was visualized by Zeiss LSM 5 Live confocal microscopy (20-min time-lapse) or quantified by FACSCalibur flow cytometry (BD Biosciences) at different time points. For DNA transfer assays, cancer cells were labeled overnight with EdU (10 μM, Molecular Probes) and maintained in culture for additional 3 days. Single cell suspensions of labeled cancer cells and astrocytes were mixed at 2:1 ratio for 6 h. EdU transfer was visualized using Zeiss LSM 5 Live confocal microscopy or quantified by FACSCalibur flow cytometry (BD Biosciences) following the manufacturer's instructions (Molecular Probes).

[6] = system: release of IFNα and TNFα in co-cultures of astrocytes and cancer cells; assay: ELISA of IFNα and TNFα in conditioned media from MDA231-BrM2 cell and astrocyte co-cultures; format: cell-based, human; conditions: FIG. 5b
Method: Cancer Cell and Astrocyte Co-Culture Experiments.
Astrocytes and cancer cells were mixed at ratio of 1:1. For apoptosis assays, overnight co-cultures were treated with 500 ng/ml sFasL (Peprotech) in serum free media, 500 nM carboplatin (Sigma-Aldrich) or 25 nM Paclitaxel (Sigma-Aldrich) for 24 h. Single cell suspensions were stained with APC-conjugated cleaved caspase 3 antibody (Cell Signaling), apoptotic GFP+ cancer cells were detected by flow cytometery. For translating ribosome affinity purification (TRAP), EGFP-L10a expressing cancer cells were co-cultured with astrocytes for 24 h. Following previously published protocols, (Heiman, Schaefer et al. 2008, Zhang, Jin et al. 2013) mRNA purified from cancer cells were was used for library construction with TruSeq RNA Sample Prep Kit v2 (Illumina) following the manufacturer's instructions. Samples were barcoded and run on a Hiseq 2000 platform in a 50 bp/50 bp paired-end run, using the TruSeq SBS Kit v3 (Illumina). An average of 50 million paired reads were generated per sample. For conditioned media analysis, media were collected after 24 h, and cytokines in the conditioned media were either identified using Human Cytokine Array (R&D systems) or measured by IFNα or TNFα ELISA kits (R&D systems). To detect the activity of IFNα or TNFα in the collected conditioned media, cancer cells were treated with the collected conditioned media for 2 h and phosphorylation status of STAT1 or NF-κB p65 was determined by western blotting. For cGAMP and […] activation experiments, cancer cells and astrocytes were co-cultured for 18 h. The phosphorylation status of TBK1, IRF3 was determined by western immunoblotting. Nuclear translocation of IRF3 was determined by immunofluorescence staining with Zeiss LSM 5 Live confocal microscopy. cGAMP levels were determined by LC-MS/MS.

[7] = cited from earlier work
[8] = system: trigeminal ganglion neuronal-satellite cell signaling; conditions: animal models; cited from earlier work
[9] = system: MDA231-BrM2 cells, H2030-BrM3 cells, KRas/p53-393N1 cells (brain metastases); assay: Brain metastasis assay, drug given daily from day 1 after arterial inoculation of cancer cells, BLI; format: in vivo; conditions: treated from day 1; MDA231-BrM2 or H2030-BrM3 in immunodeficient mice, KRas/p53-393N1 in immunocompetent mice; Tonabersat 10 mg/kg/day, meclofenamate 20 mg/kg/day i.p.
Method: as §1

[10] = system: cortical spreading depression; conditions: gap-junction-mediated pathophysiological process; cited from earlier work
[11] = system: MDA231-BrM2 cells as lung metastatic lesions; assay: Lung colonization assay, MDA231-BrM2 cells, BLI; format: in vivo, mice; conditions: FIG. 15d; same treatment from day 1
Method: as §1

[12] = system: brain metastases from breast or lung cancer; conditions: cited from earlier work
[13] = after systemic administration; cited from earlier work
[14] = system: epileptogenesis; conditions: in vivo; cited from earlier work
[15] = system: Cx43 gap junction; conditions: cited from earlier work

| Structure (SMILES) | oral bioavailability [1] | growth of MDA231-BrM2 cells as orthotopic tumours [2] | progression of brain metastatic lesions (BLI) [3] | binding to site in astrocytes [4] | dye transfer from astrocytes to cancer cells [5] | release of IFNα in co-cultures [6] | release of TNFα in co-cultures [6] | tolerability and safety in patients with migraine ([7]; patients with migraine) | trigeminal ganglion neuronal-satellite cell signaling [8] | emergence of brain metastases (BLI) [9] | cortical spreading depression [10] | growth of MDA231-BrM2 cells as lung metastatic lesions [11] | dye transfer from astrocytes to MDA231-BrM2 cells, compared with Cx43 depletion ([5]; Carbenoxolone 50 uM, FIG. 8b) | overall survival in patients with brain metastases [12] | brain metastasis (BLI) in inducible shRNA experiment ([3]; carboplatin alone 50 mg/kg/5 days starting on day 14, compared with depletion of Cx43 or PCDH7, FIG. 5f,g) | passage of the BBB [13] | systemic tolerability ([7]; in vivo) | epileptogenesis in animal models [14] | Cx43 gap junction gating [15] |
| --- | --- | --- | --- | --- | --- | --- | --- | --- | --- | --- | --- | --- | --- | --- | --- | --- | --- | --- | --- |
| CC(=O)c1ccc2c(c1)[C@H](NC(=O)c1ccc(F)c(Cl)c1)[C@H](O)C(C)(C)O2 [Tonabersat] | orally bioavailable | did not restrict growth | significantly inhibited progression of metastatic lesions | binds to a unique stereoselective binding site in astrocytes | inhibited dye transfer | inhibited | inhibited | systemically well-tolerated and safe | inhibits | prevented the emergence of brain metastases | inhibits | did not restrict growth | – | – | – | – | – | – | – |
| CC1(C)[C@@H](OC(=O)CCC(=O)O)CC[C@]2(C)[C@H]3C(=O)C=C4[C@@H]5C[C@@](C)(C(=O)O)CC[C@]5(C)CC[C@@]4(C)[C@]3(C)CC[C@@H]12 [carbenoloxone, carbenoxolone] | – | – | – | – | – | – | – | – | – | – | – | – | extent of dye-transfer inhibition after Cx43 depletion was comparable | – | – | – | – | – | – |
| N.N.O=C([O-])C1(C(=O)[O-])CCC1.[Pt+2] [carboplatin] | – | – | minimally inhibited brain metastasis growth | – | – | – | – | – | – | – | – | – | – | modest improvement in overall survival | inhibited brain metastasis to a similar extent as depletion of Cx43 or PCDH7 | crosses the BBB | – | – | – |
| Cc1ccc(Cl)c(Nc2ccccc2C(=O)O)c1Cl [meclofenamate, meclofenamic acid sodium salt] | orally bioavailable | did not restrict growth | significantly inhibited progression of metastatic lesions | – | inhibited dye transfer | inhibited | inhibited | – | – | prevented the emergence of brain metastases | – | did not restrict growth | – | – | – | passes the BBB | well tolerated systemically | inhibits epileptogenesis | inhibits Cx43 gap junction gating |
